Source: patent US20220370545A1, “INTEGRIN RECEPTOR ALPHA V BETA 3 AND ITS LIGAND INVOLVED IN CHRONIC ITCH” (North Carolina State University, priority 2019, published 2022)
Ends that are not written are not given here.

Legend:
[1] = target: T1, TRPV1 receptor (Mus musculus, UniProt Q704Y3); assay: Capsaicin-induced calcium response in DRG neurons (specificity control); assay type: cell-based; conditions: capsaicin 1 μM
T1 construct: endogenous in cells; host or cells: primary mouse dorsal root ganglion neurons
Method: (§1) Before imaging, cells were incubated in 350 μL of complete media containing 1 μM Fura-2 AM (Enzo Life Sciences, Farmingdale, New York, United States of America) for 30 min at 37° C. with 5% CO2. During imaging, the cells were perfused with a buffer containing the following: 135 mM sodium chloride, 3.2 mM potassium chloride, 2.5 mM magnesium chloride, 2.8 mM calcium chloride, 667 μM monobasic sodium phosphate, 14.2 mM sodium bicarbonate, and 10.9 mM D-glucose (all from VWR International, Radnor, Pennsylvania, United States of America) with a pH between 7.00 and 7.40. The buffer and the holding plate were kept at 37° C. while imaging. Imaging data was collected on a TE200 inverted microscope using NIS Elements software (Nikon, Melville, New York, United States of America). Cells were exposed to 340 nm and 380 nm wavelengths for 100 ms and the A340/A380 ratio was calculated. Traces were analyzed using Excel and responses greater than 10% of the baseline were counted. Each data point in the scatter plots represented one coverslip.
(§2) Calcium Imaging: Calcium imaging will be performed on the DRG neurons as previously described (Pitake et al., 2018). Briefly, DRG neurons will be incubated for longer than 30 min in DMEM containing 1 μM of a fluorescent indicator Fura-2 AM (Enzo Life Sciences, Inc., Farmingdale, N.Y., United States of America). The neurons will be perfused in a standard bath solution containing 140 mM NaCl, 5 mM KCl, 2 mM MgCl2, 2 mM CaCl2, 10 mM Hepes and 10 mM D-glucose at pH 7.4 adjusted with NaOH. A calcium-free bath solution will be prepared by omitting 2 mM CaCl2 from the standard bath solution […] adding 5 mM EGTA. Fura-2 fluorescence excited at 340 and 380 nm and emission will be monitored at 510 nm with a digital CCD camera (Andor Clara DR-4152, Andor Technology Ltd, Belfast, United Kingdom). Data will be obtained by every 100 ms using an imaging software (NIS-Elements AR 4.13.04, Nikon Corporation, Tokyo, Japan) and analyzed by Microsoft Excel (Microsoft Corporation, Redmond, Wash., United States of America). Values of calcium responses will be normalized by dividing measured values (F) with average values of initial 5 frames (F0) of each cell and described as F/F0. In this study, changes in each response to an application with F/F0>0.1 will be regarded as positive. Cells not responding to 100 mM KCl, which is applied at the end of each experiment, will be regarded as non-neuronal cells and excluded from analysis.
Additional inhibitors were studied using the calcium imaging method described in Example 3. Briefly, the Fura2-AM calcium imaging method was performed on live dorsal root ganglia (DRG) neurons (ex vivo). The DRG neurons are pre-incubated with the inhibitors P11 (Catalog #4744, Tocris Bioscience, Bristol, United Kingdom) and LM609 (Catalog #MAB1876, Millipore Sigma, Burlington, Mass., United States of America) or vehicle for 10 minutes and further stimulated with periostin or capsaicin in the presence of inhibitors. For Echistatin (Catalog #3202/100U, R&D Biosystems, Minneapolis, Minn., United States of America), MK-0429, and SB273005 (Catalog #S75-40, Selleck Chemicals Llc, Houston, Tex., United States of America), the DRG neurons were perfused with a normal Locke buffer vehicle or modified Locke buffer as described below. The values were normalized with KCl ([…]) to identify neuronal responses in all the calcium response data below.

[2] = system: Integrin αvβ3 on DRG Sensory Neurons; assay: Fura-2 calcium imaging of periostin-induced calcium response in cultured DRG sensory neurons; assay type: cell-based, mouse
Method: DRGs were isolated from mice and dissociated in 1 mL of media containing 2.5 U/mL of dispase (Fisher Scientific, Hampton, New Hampshire, United States of America) and 2.5 mg/mL of collagenase (Fisher Scientific, Hampton, New Hampshire, United States of America). After dissociation, the cells were washed with complete media (DMEM (HiMedia Laboratories, Mumbai, India) with 10% FBS (Atlanta Biologicals, Flowery Branch, Georgia, United States of America) and 1% PenStrep (VWR International, Radnor, Pa., United States of America)) and pelleted at 1000 rpm for 15 minutes. Approximately 30 μL of the cell suspension was plated on 18 mm round glass slides with a coating of laminin (Sigma Aldrich, St. Louis, Miss., United States of America) and poly-L-lysine (Sigma Aldrich, St. Louis, Miss., United States of America) and incubated for 1.5 hours. Afterwards, 1 mL of complete media was added, and the cells were incubated overnight. All incubation steps were done at 37° C. with 5% CO2.
as §1, §2
Periostin (10 ug/ml) will be used to evoke calcium influx. This response has been optimized. The peptide inhibitors will be tested on DRG neurons to measure calcium influx in response to periostin. Data on calcium imaging will be presented by presenting each mouse±SEM. The IC50 value of the inhibitor will also be determined
Additional inhibitors were studied using the calcium imaging method described in Example 3. Briefly, the Fura2-AM calcium imaging method was performed on live dorsal root ganglia (DRG) neurons (ex vivo). […]

[3] = system: murine keratinocyte cell line (Balb/MK2); assay: TSLP-induced periostin production in Balb/MK2 keratinocytes (ELISA); assay type: cell-based, mouse; conditions: for TSLP-induced periostin release: pre-exposed 4 hrs to 10 μmol/l inhibitor, then TSLP 10 ng/ml for 24 h
Method: The murine keratinocyte cell line (Balb/MK2) was used in this study to determine the periostin production induced by TSLP. Cells were cultured in EMEM medium according to the previously described method (Fukuyama et al., 2018). Confluent cells were exposed to TSLP at 1 or 10 ng/ml in FBS-free medium for 24 hrs. Inhibitory effect of the JAK2 inhibitor, SD 1008 and the STAT3 inhibitor, niclosamide, on TSLP-induced periostin production was also quantified using the murine Balb/MK2 keratinocyte cell line. Confluent cells were pre-exposed for 4 hrs to SD 1008 (10 μmol/l) or niclosamide (10 μmol/l), before being exposed to the TSLP at 10 ng/ml for a further 24 h. After TSLP exposure, periostin levels in cell supernatant were determined by ELISA according to the manufacturer's instructions.

[4] = system: NC/Nga mice sensitized with Dermatophagoides farinae HDM; assay: House dust mite (HDM) allergic itch model in NC/Nga mice; assay type: in vivo, mouse
Method: C57BL6 mice (Jackson Labs, Ellsworth, Maine, United States of America) were applied daily with MC903 (4 nmol) and vehicle (97% ethanol) after brief anesthesia. Skin thickness was measured using cutimeter as described (Fukuyama et al., 2015). Scratching behavior was video-monitored for 30 min on Day 1 and Day 7. On Day 7 skin was collected from vehicle and MC903 treated mice for the Western Blot (WB) as described below. NC/Nga mice (Charles River, Yokohama, Japan) were sensitized and challenged with house dust mite (HDM) allergen (Dermatophagoides farina, Greer, Lenoir, N.C., United States of Amercia) as described previously (Fukuyama et al., 2018). In short, for sensitization, 30 μl of HDM in mineral oil (10 mg/ml) was applied topically to the clipped back twice weekly supported by tape stripping until visible lesions had developed. After development of visible lesions mice were treated daily either with vehicle cream or betamethasone dipropionate (0.1% in lipoderm, n=8). […] Scratching behavior was video monitored for 60 min period immediately after HDM on day 42. For periostin measurement, mice were sacrificed for determination of periostin in skin on day 43. A portion of back skin tissue were snap-frozen in liquid nitrogen. Briefly, samples were homogenized under liquid nitrogen, and the homogenates were taken in 200 μL RPMI 1640 medium containing 1 mmol/L Pefabloc. The amount of periostin was determined using ELISA according to the manufacturer's instruction.

[5] = system: mouse cornea; assay: Eye wipes assay (corneal application); assay type: in vivo; conditions: wild-type mice, wiping measured for 1 minute
Method: All behavioral experiments were conducted during the light cycle at ambient temperature (23° C.). Behavioral assessment of scratching behavior was conducted as described previously (Mishra et al., 2011). Briefly, mice were injected intradermal into the nape of the neck with periostin (R&D), histamine, and chloroquine (all Millipore-Sigma) as previously described (Shimada and LaMotte, 2008). Compounds were diluted in PBS and the same was used as a vehicle. […] Additionally, cilengitide and periostin were combined together (mix) and injected i.d. into the dorsal neck of mouse. Scratching behavior was recorded for 30 minutes and data was presented in bouts per 30 minutes for mice. […] For eye wipes assay, periostin and capsaicin were dropped on mouse cornea and counted wipes for 1-minute. […] For dog's study, periostin (25 μg/25 μl) was injected in the dorsal neck (s.c.) and behavior was recorded and quantified for 30 minutes as “duration of pruritus manifestation” (DPM), as described earlier (Paps et al., 2016). […] When different raters separately scored a single tape, the ratings indicated high interrater reliability (coefficient of correlation, r>0.95). This method of itch readout in NHP has been used and accepted (Ko and Naughton, 2000). The behavior was recorded for 30 minutes duration and number of scratches quantified. […]

[6] = target: integrin αvβ3 on mouse dorsal root ganglia (DRG) sensory neurons (mouse) (UniProt P43406); assay: cell-based or functional assay
integrin αvβ3 on mouse dorsal root ganglia (DRG) sensory neurons (mouse), sequence (P43406 31-1044, chain 1 of 2): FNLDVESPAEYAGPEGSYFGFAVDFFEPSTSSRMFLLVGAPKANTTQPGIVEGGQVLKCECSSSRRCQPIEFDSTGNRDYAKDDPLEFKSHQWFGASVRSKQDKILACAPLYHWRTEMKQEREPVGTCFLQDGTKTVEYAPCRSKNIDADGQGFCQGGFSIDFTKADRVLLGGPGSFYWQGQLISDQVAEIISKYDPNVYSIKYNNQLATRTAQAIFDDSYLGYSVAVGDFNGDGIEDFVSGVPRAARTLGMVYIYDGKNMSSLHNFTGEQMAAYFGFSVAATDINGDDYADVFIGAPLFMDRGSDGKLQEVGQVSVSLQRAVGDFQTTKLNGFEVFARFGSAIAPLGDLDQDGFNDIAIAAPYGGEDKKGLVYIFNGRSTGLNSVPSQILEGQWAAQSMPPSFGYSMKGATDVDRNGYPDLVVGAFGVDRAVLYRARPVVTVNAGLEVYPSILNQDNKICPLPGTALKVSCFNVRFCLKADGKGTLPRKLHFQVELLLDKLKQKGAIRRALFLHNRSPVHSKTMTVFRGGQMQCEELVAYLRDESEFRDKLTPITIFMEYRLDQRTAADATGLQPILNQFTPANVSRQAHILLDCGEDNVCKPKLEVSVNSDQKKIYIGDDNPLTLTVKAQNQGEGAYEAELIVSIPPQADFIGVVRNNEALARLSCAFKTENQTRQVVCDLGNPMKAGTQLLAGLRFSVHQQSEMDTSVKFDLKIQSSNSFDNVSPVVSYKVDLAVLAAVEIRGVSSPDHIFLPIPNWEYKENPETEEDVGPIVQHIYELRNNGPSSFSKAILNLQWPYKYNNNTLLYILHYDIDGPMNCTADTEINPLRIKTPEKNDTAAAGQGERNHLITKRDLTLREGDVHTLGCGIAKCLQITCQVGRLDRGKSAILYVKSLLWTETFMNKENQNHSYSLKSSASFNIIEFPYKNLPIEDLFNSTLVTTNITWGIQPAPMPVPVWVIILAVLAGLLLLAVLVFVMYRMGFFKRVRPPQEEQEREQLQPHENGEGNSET
integrin αvβ3 on mouse dorsal root ganglia (DRG) sensory neurons (mouse), sequence (O54890 26-787, chain 2 of 2, further chain): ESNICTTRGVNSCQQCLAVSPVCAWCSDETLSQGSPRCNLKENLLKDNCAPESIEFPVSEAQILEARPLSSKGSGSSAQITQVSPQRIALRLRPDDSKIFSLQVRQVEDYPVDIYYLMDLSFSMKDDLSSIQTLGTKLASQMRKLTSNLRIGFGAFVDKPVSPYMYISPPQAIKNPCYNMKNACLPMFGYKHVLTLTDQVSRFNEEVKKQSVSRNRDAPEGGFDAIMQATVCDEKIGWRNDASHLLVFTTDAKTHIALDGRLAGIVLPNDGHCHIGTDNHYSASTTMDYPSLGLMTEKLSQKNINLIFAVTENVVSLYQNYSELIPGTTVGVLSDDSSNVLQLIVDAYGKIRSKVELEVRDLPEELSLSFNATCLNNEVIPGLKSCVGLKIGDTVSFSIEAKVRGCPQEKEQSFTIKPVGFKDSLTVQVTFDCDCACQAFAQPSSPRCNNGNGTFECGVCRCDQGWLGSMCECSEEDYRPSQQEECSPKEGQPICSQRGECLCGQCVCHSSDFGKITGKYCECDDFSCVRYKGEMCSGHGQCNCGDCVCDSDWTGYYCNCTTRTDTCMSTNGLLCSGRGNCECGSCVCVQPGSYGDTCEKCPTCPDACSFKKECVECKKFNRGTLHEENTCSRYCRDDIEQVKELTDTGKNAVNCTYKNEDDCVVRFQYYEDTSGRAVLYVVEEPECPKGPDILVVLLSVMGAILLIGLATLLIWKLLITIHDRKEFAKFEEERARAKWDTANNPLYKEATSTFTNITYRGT

T1 sequence (Q704Y3 whole entry): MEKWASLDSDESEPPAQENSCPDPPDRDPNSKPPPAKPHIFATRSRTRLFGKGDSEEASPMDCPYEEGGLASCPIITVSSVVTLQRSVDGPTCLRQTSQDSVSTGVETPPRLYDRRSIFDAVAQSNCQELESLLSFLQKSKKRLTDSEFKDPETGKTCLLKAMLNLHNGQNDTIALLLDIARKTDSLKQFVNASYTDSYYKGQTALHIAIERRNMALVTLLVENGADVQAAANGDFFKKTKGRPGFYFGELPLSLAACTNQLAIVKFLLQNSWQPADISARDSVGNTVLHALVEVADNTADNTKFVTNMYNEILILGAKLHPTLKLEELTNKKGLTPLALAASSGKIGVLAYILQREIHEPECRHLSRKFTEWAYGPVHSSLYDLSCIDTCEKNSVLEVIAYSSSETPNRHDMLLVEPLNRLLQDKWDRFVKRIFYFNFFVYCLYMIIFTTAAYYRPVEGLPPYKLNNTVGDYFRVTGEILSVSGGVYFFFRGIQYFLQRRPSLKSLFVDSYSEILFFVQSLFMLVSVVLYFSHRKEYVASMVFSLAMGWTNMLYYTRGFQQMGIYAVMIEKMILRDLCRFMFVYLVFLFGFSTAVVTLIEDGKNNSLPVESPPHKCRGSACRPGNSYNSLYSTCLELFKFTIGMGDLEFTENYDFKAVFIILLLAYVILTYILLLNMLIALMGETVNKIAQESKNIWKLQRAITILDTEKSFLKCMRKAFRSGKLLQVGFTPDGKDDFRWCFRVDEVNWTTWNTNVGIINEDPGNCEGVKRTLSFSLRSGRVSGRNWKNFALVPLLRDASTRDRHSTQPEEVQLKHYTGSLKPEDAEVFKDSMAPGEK

With `COc1ccc([C@H](CC(=O)O)N2CCN(CCCc3ccc4c(n3)NCCC4)C2=O)cn1` [MK-0429, (S)-3-(6-methoxypyridin-3-yl)-3-(2-oxo-3-(3-(5,6,7,8-tetrahydro-1,8-naphthyridin-2-yl)propyl)-imidazol-idin-1-yl)propanoic acid] the capsaicin response ([1]; MK-0429 80 nM or 160 nM) was “no changes” and the “periostin response (calcium influx)” value ([2]; higher concentration of MK-0429 (160 nM)) was “significant reduction”.

`CNc1cccc(CCOc2ccc3c(c2)CN(CC(F)(F)F)C(=O)[C@H](CC(=O)O)C3)n1` [SB273005, (S)-2-(8-(2-(6-(methylamino)pyridin-2-yl)ethoxy)-3-oxo-2-(2,2,2-trifluoroethyl)-2,3,4,5-tetrahydro-1H-benzo-[c]azepin-4-yl)acetic acid] was tested, and the capsaicin response ([1]; SB273005 11 nM or 20 nM) was “No changes”, the “reduction of periostin-induced calcium response” value ([2]; SB273005 11 nM, trend, not statistically significant) was “about 40%” and the periostin-induced calcium response ([2]; SB273005 higher concentration (20 nM)) was “significant reduction”.

For `COC(=O)[C@@H]1[C@H](C(=O)OC)[C@H]2C=CC(=O)[C@@H]1N2Cc1ccccc1` [SD 1008], the TSLP-induced periostin release [3] was “blocked”.

For `COc1ccc2c(c1)CC[C@@H]1[C@@H]2CC[C@]2(C)[C@@H](NCCCCCCN3C(=O)C=CC3=O)CC[C@@H]12` [U73122], the periostin-induced calcium response ([2]; phospholipase C inhibitor U73122 1 μM) was “not affected”.

With `CCC(=O)OCC(=O)[C@@]1(OC(=O)CC)[C@@H](C)C[C@H]2[C@@H]3CCC4=CC(=O)C=C[C@]4(C)[C@@]3(F)[C@@H](O)C[C@@]21C` [betamethasone dipropionate] the HDM-induced scratching ([4]; betamethasone dipropionate 0.1% in lipoderm topically, day 42) was “reduced”, the periostin skin levels ([4]; betamethasone dipropionate 0.1% in lipoderm topically, skin ELISA day 43) was “reduced significantly” and the body weight ([4]; daily betamethasone dipropionate 0.1%, application reduced to every other day on day 26) was “significant weight loss”.

With `COc1cc(CNC(=O)CCCC/C=C/C(C)C)ccc1O` [capsaicin] the “eye-wiping response to ocular application” value [5] was “robust eye-wipe behavior”.

`O=C1OC2(c3ccccc31)c1ccc(O)c(O)c1Oc1c2ccc(O)c1O` [gallein] was tested, and the periostin-induced calcium response ([2]; Gβγ blocker gallein 100 μM) was “not affected”.

In the case of `O=C(Nc1ccc([N+](=O)[O-])cc1Cl)c1cc(Cl)ccc1O` [niclosamide], the TSLP-induced periostin release [3] is reported as “blocked”.

Echistatin was tested, and the capsaicin response ([1]; in presence of Echistatin) was “remains unaffected” and the “reduction in periostin-induced calcium influx” value ([2]; Echistatin 4 nM) was “around 80%”.

For “His-Ser-Asp-Val-His-Lys-NH2 (HSDVHK-NH2) [P11]”, the capsaicin response ([1]; P11 pre-treatment) was “no change” and the “reduction in periostin-induced calcium influx” value ([2]; P11 50 μg/ml, 10 minutes pre-incubation) was “about 78%”.

“Recombinant Mouse Periostin (from UniProt Q62009 24-811) (ligand)” showed an inward current in SST-positive DRG neurons in response to periostin (10 µg/ml), whole-cell patch clamp [6] of 58.4 pA.

B1: TSLP: Th2 cytokine thymic stromal lymphopoietin, recombinant mouse (protein, UniProt Q9JIE6 20-140, looked up)
Thymic stromal lymphopoietin: YNFSNCNFTSITKIYCNIIFHDLTGDLKGAKFEQIEDCESKPACLLKIEYYTLNPIPGCPSLPDKTFARRTREALNDHCPGYPETERNDGTQEMAQEVQNICLNQTSQILRLWYSFMQSPE
In the case of B1, the “release of periostin from keratinocytes” value ([3]; TSLP 1 and 10 ng/ml, 24 hrs) is reported as “induced the release of periostin”.
